Experimental findings from ChEMBL document CHEMBL1148847, “Synthesis of 3-(1H-benzimidazol-2-yl)-5-isoquinolin-4-ylpyrazolo[1,2-b]pyridine, a potent cyclin dependent kinase 1 (CDK1) inhibitor” (Bioorg Med Chem Lett, 2007) are described below.

Molecules are shown by their SMILES. pIC50: −log10 of the molar value.

The nature of assay [1]: Inhibition of CDK1/Cyclin B by Flashplate assay. The arrangement: species or system Homo sapiens.
In assay [2] the target is Vascular endothelial growth factor receptor 2 (Homo sapiens, UniProt P35968). As to the kind of experiment: Inhibition of VEGFR2.
Chain of Vascular endothelial growth factor receptor 2 (P35968 whole entry): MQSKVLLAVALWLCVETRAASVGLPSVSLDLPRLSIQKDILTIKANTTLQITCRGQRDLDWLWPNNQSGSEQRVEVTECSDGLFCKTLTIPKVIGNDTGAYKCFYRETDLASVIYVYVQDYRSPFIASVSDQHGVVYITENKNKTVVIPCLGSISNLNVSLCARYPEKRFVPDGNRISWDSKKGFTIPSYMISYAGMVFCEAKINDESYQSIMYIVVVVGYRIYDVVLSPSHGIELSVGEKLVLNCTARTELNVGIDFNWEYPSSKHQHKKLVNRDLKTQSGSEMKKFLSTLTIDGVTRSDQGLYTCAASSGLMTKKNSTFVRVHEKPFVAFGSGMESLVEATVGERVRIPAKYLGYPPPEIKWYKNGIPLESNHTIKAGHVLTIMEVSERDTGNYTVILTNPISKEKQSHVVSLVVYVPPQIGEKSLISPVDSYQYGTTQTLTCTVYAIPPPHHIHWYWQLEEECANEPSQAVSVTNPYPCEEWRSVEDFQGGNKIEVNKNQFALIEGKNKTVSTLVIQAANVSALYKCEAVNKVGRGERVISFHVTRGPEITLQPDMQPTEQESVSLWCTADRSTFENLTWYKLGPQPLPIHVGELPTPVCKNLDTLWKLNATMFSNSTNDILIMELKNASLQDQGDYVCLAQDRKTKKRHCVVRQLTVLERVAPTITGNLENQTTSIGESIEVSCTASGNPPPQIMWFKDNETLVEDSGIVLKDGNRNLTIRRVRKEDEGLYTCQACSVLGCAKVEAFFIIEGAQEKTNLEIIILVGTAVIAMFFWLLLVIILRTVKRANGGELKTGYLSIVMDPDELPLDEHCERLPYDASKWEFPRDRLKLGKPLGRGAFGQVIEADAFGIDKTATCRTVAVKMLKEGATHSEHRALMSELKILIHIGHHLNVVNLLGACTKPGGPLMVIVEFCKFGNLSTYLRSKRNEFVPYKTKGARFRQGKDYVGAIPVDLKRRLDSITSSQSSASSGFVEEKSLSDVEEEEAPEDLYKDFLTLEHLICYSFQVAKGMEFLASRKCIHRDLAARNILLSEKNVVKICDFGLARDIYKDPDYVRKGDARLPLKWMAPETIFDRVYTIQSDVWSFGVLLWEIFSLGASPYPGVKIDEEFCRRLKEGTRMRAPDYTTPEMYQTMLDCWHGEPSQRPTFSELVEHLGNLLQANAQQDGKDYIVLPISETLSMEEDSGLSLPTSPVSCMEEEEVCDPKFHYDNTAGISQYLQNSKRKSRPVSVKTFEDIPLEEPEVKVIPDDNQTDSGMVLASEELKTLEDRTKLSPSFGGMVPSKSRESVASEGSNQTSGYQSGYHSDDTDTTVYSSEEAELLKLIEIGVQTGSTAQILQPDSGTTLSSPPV

The term pIC50 denotes −log10 of the IC50, conventionally taken in molar units. Higher therefore signals a low IC50. Take `c1ccc2c(-c3cnc4[nH]nc(-c5nc6ccccc6[nH]5)c4c3)cncc2c1`: the pIC50 was 7.64 in assay [1] and 5.84 in assay [2].
